In the experiment the target is T1, recombinant soluble rat CD73 (Rattus norvegicus, UniProt P21588).
T1 construct: glutathione-S-transferase fusion protein of soluble rat CD73; glutathione-S-transferase (GST); made in house; host or cells: Sf9 insect cells
T1 sequence (P21588 29-551 limits assumed): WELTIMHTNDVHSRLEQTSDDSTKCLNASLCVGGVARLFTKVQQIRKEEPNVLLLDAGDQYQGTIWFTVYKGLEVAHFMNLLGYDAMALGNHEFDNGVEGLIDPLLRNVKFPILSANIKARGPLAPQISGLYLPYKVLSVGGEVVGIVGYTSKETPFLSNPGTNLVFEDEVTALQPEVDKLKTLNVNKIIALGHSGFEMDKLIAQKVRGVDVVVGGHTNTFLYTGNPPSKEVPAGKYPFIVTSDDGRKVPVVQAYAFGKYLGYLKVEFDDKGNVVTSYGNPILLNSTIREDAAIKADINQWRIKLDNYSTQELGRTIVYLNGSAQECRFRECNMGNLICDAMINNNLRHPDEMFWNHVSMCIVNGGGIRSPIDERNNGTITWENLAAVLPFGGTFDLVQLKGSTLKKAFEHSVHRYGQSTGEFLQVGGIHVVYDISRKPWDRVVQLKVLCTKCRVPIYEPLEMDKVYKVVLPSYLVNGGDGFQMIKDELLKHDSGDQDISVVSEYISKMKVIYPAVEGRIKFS
The experiment can be described thus: CD73 enzyme inhibition assay with [2,8-3H]AMP, soluble rat CD73. Type of experiment: biochemical. Particulars: [2,8-3H]AMP (5 μM) as substrate; read-out: Rat soluble CD73 Ki ± SEM. The method, then: Compound 2b, its precursor 1, and 20 were investigated for their CD73-inhibitory potency using tritium-labeled AMP as a substrate.^20 After incubation with CD73, non-hydrolyzed substrate and inorganic phosphate were precipitated using a solution of lanthanum chloride, and the precipitate was separated from the solution containing the reaction product [2,8-^3H]adenosine by filtration through GF/B glass fiber filters (WhatmanTM GE Healthcare, Chicago, IL, USA) using a cell harvester (M-48, Brandel, Gaitherburg, MD, USA). The filtrates (ca. 1.8 mL each) were transferred to scintillation vials, scintillation cocktail ULTIMA Gold XR (PerkinElmer, Waltham, MA, USA) was added (5 mL), and the radioactivity esd quantified by scintillation counting. CD73 preparations were (1) recombinant soluble human CD73,^13 (2) recombinant soluble rat CD73,^21 both expressed in Spodoptera frugiperda 9 (Sf) cells, (3) membrane preparations of MDA-MB-231 cells,^16 a human triple-negative breast cancer cell line with high expression of CD73,^18 and (4) membrane preparations of the 4T1.2 cell line, a mouse CD73-expressing breast cancer cell line.^22 The potency of the compounds was determined by measurements of full concentration-inhibition curves. K values were calcuated from the obtained IC50 values employing the Cheng-Prusoff equation.^23 […]

By Ki is commonly meant the dissociation constant of the complex between target and ligand, obtained from inhibition or displacement. Consider `CCCN(Cc1ccc(-c2cn(CCF)nn2)cc1)c1nc(Cl)nc2c1ncn2[C@@H]1O[C@H](COP(=O)(O)CP(=O)(O)O)C(O)C1O` (some centres unmarked) [Compound 2], for which the Ki worked out at 6.09 ± 0.74 nM.

`O=C(NCCCCCCNC(=O)c1ccc2c(c1)C1(OC2=O)c2ccc(O)cc2Oc2cc(O)ccc21)c1ccc(CNc2nc(Cl)nc3c2ncn3[C@@H]2O[C@H](COP(=O)(O)CP(=O)(O)O)[C@@H](O)[C@H]2O)cc1` [Compound 20, (((((2R,3S,4R,5R)-5-(2-chloro-6-((4-((6-(3′,6′-dihydroxy-3-oxo-3H-spiro[isobenzofuran-1,9′-xanthene]-6-carboxamido)-hexyl)carbamoyl)benzyl)amino)-9H-purin-9-yl)-3,4-dihydroxytetrahydrofuran-2-yl)methoxy)(hydroxy)phosphoryl)methyl)phosphonic acid]: the Ki is 18 ± 1.43 nM.

For the origin of these results see US20250382322A1, “DIAGNOSTICS FOR DETECTING ECTO-5'-NUCLEOTIDASE (CD73)” (EBERHARD KARLS UNIVERSITÄT TÜBINGEN, priority 2022, published 2025).
